Source: ChEMBL document CHEMBL5465560, “Selectivity Literature for EUbOPEN Chemogenomic Library” (2024)

Columns and labels:
Aurora kinase B = Aurora kinase B (Homo sapiens, UniProt Q96GD4); experiment: Selectivity interaction (Kinase panel (Invitrogen, enzymatic assay)) EUB0000162b AURKB
[1] = test system: Tyrosine-protein kinase ABL1 (Homo sapiens), P00519 [H396P]; experiment: Selectivity interaction (KinomeScan (DiscoverX)) EUB0000666a ABL1; conditions: at 10 µM
[2] = target: MAP kinase-activated protein kinase 2 (Homo sapiens, UniProt P49137); experiment: Selectivity interaction (KinomeScan (DiscoverX)) EUB0000666a MAPKAPK2; conditions: at 10 µM
[3] = target: Mitogen-activated protein kinase 7 (Homo sapiens) (UniProt Q13164); experiment: Selectivity interaction (KinomeScan (DiscoverX)) EUB0001079a MAPK7; conditions: at 1 µM
[4] = target: Phosphatidylinositol 3-kinase catalytic subunit type 3 (Homo sapiens, UniProt Q8NEB9); experiment: Selectivity interaction (ActivX KiNativ screen (kinase selectivity in THP-1 cell lysates)) EUB0000639a PIK3C3; assay type: subcellular; conditions: lysate, at 0.01 µM
[5] = target: 5'-AMP-activated protein kinase catalytic subunit alpha-1 (Homo sapiens, UniProt Q13131); experiment: Selectivity interaction (ActivX KiNativ screen (kinase selectivity in THP-1 cell lysates)) EUB0000639a PRKAA1; assay type: subcellular; conditions: lysate, at 0.01 µM
[6] = target: Ribosomal protein S6 kinase beta-1 (Homo sapiens, UniProt P23443); experiment: Selectivity interaction (ActivX KiNativ screen (kinase selectivity in THP-1 cell lysates)) EUB0000639a RPS6KB1; assay type: subcellular; conditions: lysate, at 0.04 µM
[7] = target: Rho-associated protein kinase 1 (Homo sapiens) (UniProt Q13464); experiment: Selectivity interaction (KinomeScan (DiscoverX)) EUB0000595a ROCK1; conditions: at 10 µM
[8] = target: T1, Interleukin-1 receptor-associated kinase 3 (Homo sapiens) (UniProt Q9Y616); experiment: Selectivity interaction (KinomeScan (DiscoverX)) EUB0000092b IRAK3; conditions: at 10 µM
T1 sequence (whole entry): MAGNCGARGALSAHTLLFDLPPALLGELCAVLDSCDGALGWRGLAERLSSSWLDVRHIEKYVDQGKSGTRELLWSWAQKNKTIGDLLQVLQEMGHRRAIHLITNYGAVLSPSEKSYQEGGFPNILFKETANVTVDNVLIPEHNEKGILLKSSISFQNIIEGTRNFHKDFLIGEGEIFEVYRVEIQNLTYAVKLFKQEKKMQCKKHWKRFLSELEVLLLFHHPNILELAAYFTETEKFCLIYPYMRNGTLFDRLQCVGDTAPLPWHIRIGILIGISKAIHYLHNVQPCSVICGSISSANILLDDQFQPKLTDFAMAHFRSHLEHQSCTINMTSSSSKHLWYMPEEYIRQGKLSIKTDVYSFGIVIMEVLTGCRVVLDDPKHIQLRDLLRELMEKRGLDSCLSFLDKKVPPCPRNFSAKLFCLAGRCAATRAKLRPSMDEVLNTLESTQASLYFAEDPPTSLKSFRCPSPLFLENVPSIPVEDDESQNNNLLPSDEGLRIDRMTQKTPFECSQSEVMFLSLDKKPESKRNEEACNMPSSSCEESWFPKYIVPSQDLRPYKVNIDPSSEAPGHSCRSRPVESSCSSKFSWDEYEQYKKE

[9] = target: Microtubule-associated serine/threonine-protein kinase 1 (Homo sapiens) (UniProt Q9Y2H9); experiment: Selectivity interaction (Ambit KINOMEscan and KiNATiv profiling in Jurkat cells) EUB0000090b MAST1; assay type: cell-based; conditions: at 1 µM
[10] = test system: eIF-2-alpha kinase GCN2 (Homo sapiens), Q9P2K8 [S808G]; experiment: Selectivity interaction (KinomeScan (DiscoverX)) EUB0000045b EIF2AK4
[11] = target: T2, Discoidin domain-containing receptor 2 (Homo sapiens) (UniProt Q16832); conditions: at 10 µM
T2 sequence (whole entry): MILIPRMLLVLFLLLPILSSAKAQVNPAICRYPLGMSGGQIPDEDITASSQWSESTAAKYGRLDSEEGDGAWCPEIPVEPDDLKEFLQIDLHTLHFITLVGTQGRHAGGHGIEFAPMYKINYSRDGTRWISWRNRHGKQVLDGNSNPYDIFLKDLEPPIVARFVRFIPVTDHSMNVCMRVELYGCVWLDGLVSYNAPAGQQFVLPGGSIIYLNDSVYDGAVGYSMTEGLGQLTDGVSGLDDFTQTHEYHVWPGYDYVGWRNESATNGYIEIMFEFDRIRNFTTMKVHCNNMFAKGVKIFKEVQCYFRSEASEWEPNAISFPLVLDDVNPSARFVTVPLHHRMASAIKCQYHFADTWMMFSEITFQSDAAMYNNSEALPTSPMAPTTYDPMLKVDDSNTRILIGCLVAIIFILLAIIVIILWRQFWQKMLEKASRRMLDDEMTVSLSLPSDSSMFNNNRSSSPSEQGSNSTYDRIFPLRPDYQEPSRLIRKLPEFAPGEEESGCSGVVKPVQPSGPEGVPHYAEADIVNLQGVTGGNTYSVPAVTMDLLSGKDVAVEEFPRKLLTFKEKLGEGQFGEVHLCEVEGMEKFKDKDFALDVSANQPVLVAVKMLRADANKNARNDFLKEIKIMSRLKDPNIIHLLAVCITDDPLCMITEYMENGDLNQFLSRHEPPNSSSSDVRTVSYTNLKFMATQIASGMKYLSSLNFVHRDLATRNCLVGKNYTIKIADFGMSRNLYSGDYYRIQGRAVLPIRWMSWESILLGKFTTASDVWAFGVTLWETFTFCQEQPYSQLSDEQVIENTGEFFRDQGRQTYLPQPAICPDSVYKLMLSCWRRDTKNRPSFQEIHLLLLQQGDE

[12] = target: Calcium/calmodulin-dependent protein kinase type II subunit gamma (Homo sapiens) (UniProt Q13555); experiment: Selectivity interaction (ActivX KiNativ screen (ex vivo kinase selectivity in human PBMCs)) EUB0001619a CAMK2G; assay type: cell-based; conditions: PBMC, at 1 µM
[13] = target: Cyclin-dependent kinase 7 (Homo sapiens, UniProt P50613); experiment: Selectivity interaction (KinomeScan (DiscoverX)) EUB0000655a CDK7; conditions: at 10 µM
[14] = target: Dual specificity tyrosine-phosphorylation-regulated kinase 1A (Homo sapiens, UniProt Q13627); experiment: Selectivity interaction (KinomeScan (DiscoverX)) EUB0000655a DYRK1A; conditions: at 10 µM
[15] = Selectivity interaction (KinomeScan (DiscoverX)) EUB0000695a CDK2H; conditions: at 100 nM
[16] = target: Casein kinase I isoform epsilon (Homo sapiens, UniProt P49674); experiment: Selectivity interaction (KinomeScan (DiscoverX)) EUB0000607a CSNK1E; conditions: at 10 µM
[17] = target: G protein-coupled receptor kinase 4 (Homo sapiens) (UniProt P32298); experiment: Selectivity interaction (KinomeScan (DiscoverX)) EUB0000607a GRK4; conditions: at 10 µM
[18] = target: Mitogen-activated protein kinase kinase kinase 20 (Homo sapiens) (UniProt Q9NYL2); experiment: Selectivity interaction (KinomeScan (DiscoverX)) EUB0000607a MAP3K20; conditions: at 10 µM
[19] = target: Substance-P receptor (Homo sapiens) (UniProt P25103); experiment: Selectivity interaction (Panel of kinases, GPCRs, ion channels and transporters (enzymatic assay)) EUB0000223bCl TACR1

eIF-2-alpha kinase GCN2 (Homo sapiens), Q9P2K8 [S808G], sequence (Q9P2K8 whole entry S808G, the tested form may be a part): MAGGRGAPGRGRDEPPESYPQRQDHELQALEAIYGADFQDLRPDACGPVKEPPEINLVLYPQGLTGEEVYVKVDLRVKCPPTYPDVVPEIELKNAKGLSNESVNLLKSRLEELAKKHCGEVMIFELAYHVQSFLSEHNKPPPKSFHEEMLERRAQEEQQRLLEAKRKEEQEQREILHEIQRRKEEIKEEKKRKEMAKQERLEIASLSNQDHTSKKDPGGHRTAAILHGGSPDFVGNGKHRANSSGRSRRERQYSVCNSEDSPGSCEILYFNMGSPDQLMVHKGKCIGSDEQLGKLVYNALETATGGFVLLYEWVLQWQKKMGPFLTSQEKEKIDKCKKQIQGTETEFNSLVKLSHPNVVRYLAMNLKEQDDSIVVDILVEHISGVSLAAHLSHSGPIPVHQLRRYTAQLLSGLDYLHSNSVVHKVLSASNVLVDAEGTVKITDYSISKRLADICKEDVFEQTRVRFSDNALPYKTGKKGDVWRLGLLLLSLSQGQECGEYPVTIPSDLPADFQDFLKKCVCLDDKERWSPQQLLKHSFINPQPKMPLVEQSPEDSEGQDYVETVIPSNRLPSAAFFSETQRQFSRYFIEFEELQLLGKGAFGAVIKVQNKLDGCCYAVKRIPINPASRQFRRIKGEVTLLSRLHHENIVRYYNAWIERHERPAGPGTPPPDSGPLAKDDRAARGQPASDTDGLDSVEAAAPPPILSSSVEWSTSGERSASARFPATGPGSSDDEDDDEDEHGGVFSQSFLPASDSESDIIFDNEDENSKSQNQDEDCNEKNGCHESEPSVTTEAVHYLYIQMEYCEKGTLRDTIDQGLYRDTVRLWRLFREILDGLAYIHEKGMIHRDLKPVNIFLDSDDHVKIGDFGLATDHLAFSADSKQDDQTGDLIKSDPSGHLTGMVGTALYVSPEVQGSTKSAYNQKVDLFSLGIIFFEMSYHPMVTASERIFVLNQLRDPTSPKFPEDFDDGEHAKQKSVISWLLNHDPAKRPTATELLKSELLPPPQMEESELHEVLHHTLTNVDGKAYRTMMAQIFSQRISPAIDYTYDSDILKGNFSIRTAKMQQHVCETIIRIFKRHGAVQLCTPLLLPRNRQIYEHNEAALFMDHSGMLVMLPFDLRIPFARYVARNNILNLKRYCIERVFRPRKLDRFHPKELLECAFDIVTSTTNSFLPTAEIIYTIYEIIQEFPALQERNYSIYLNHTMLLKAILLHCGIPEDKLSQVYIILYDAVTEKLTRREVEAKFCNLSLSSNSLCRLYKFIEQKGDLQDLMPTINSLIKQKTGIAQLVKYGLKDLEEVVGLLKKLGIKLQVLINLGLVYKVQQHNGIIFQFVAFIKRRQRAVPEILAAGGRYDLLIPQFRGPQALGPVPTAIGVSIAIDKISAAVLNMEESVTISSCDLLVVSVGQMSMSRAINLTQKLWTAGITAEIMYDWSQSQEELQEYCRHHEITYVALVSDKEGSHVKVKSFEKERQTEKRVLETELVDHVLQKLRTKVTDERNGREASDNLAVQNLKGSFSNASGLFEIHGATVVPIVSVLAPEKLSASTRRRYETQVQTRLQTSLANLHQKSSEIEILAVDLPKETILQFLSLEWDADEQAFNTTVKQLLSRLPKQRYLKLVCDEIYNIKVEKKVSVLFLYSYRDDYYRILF
Microtubule-associated serine/threonine-protein kinase 1 (Homo sapiens), sequence (Q9Y2H9 whole entry, looked up): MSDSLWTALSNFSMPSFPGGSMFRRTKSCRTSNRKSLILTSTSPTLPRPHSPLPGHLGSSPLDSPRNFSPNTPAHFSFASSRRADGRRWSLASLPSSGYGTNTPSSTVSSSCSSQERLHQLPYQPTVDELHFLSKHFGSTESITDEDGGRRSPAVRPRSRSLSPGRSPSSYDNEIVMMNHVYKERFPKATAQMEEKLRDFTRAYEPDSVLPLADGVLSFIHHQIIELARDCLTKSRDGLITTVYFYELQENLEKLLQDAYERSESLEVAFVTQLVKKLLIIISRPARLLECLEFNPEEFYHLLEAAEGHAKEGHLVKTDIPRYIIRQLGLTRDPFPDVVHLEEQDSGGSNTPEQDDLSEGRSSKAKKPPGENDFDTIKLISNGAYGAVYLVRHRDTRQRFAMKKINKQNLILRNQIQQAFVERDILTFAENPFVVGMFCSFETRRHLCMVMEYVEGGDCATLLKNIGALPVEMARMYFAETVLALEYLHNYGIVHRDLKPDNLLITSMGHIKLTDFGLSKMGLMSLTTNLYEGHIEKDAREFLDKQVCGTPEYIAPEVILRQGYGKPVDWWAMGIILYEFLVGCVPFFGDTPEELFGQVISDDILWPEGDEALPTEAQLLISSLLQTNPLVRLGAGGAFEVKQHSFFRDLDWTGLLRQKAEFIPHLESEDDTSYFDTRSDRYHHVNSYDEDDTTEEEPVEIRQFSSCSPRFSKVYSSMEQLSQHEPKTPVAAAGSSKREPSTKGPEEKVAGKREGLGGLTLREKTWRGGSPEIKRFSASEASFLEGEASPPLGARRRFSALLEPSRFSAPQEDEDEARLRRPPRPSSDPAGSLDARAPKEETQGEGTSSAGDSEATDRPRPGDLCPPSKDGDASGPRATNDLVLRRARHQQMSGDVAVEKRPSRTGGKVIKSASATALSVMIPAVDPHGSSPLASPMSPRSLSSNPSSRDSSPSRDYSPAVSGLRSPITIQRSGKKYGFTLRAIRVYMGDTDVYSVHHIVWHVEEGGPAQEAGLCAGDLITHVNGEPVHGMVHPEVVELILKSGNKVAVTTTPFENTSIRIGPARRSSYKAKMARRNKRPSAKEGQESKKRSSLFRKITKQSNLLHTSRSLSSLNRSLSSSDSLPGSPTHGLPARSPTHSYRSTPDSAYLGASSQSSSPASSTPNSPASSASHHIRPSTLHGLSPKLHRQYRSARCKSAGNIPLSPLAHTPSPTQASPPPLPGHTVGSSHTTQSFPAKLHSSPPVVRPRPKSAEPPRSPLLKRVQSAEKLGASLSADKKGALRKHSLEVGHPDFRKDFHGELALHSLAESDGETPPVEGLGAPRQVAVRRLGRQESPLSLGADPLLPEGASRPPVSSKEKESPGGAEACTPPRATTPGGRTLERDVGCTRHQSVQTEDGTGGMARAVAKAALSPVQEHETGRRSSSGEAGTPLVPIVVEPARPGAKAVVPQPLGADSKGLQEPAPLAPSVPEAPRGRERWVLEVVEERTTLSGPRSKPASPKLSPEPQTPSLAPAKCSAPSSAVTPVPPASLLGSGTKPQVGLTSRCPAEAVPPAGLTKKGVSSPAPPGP
Calcium/calmodulin-dependent protein kinase type II subunit gamma (Homo sapiens), sequence (Q13555 whole entry): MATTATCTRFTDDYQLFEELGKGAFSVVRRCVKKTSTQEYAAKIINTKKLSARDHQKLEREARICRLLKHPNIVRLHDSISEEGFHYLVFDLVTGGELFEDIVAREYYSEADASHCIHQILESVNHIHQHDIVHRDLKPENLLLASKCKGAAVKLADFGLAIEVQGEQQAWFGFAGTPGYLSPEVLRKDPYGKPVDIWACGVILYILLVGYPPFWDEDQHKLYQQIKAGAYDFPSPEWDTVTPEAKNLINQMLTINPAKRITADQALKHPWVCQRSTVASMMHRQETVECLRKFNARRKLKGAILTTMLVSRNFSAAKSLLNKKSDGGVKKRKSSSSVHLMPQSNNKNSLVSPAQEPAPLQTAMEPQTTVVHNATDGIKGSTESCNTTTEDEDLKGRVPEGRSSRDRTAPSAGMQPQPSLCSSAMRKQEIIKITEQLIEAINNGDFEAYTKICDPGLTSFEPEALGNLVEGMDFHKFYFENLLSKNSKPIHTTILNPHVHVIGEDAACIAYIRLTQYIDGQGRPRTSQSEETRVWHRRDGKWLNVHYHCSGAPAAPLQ
Ribosomal protein S6 kinase beta-1, sequence (P23443 whole entry, looked up): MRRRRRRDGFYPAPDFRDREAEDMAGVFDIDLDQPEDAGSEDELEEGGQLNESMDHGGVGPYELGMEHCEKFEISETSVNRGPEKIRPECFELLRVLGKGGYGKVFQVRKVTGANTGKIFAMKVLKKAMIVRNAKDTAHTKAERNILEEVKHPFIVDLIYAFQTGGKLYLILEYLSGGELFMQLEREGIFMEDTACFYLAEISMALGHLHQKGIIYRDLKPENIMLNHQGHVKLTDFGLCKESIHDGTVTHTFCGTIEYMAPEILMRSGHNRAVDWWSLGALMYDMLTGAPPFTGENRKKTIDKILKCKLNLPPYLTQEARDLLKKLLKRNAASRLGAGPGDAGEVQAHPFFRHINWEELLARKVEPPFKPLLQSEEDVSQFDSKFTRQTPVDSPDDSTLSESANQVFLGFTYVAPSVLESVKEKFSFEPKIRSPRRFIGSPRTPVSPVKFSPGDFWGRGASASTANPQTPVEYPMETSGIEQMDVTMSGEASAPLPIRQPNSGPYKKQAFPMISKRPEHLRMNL
5'-AMP-activated protein kinase catalytic subunit alpha-1, sequence (Q13131 whole entry, looked up): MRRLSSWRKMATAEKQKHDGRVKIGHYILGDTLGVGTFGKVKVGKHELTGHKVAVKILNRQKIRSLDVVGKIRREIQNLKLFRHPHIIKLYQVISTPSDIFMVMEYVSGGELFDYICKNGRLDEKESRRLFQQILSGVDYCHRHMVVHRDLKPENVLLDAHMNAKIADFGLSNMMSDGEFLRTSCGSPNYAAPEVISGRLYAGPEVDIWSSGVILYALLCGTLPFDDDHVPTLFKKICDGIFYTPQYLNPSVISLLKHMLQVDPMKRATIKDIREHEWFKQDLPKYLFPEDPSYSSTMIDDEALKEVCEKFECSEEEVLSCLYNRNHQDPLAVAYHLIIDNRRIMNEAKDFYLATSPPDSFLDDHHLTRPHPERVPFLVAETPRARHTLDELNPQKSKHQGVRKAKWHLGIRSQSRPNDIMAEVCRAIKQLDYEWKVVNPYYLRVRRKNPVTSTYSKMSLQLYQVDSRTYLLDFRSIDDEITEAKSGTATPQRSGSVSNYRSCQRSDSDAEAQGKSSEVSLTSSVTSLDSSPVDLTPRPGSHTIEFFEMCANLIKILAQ

## CN(C)C(=O)Cn1cc(-c2ccc(-c3cncc4ccccc34)cc2)cn1
Aurora kinase B
  IC50: 0.809 µM

## O=C(NOC[C@H](O)CO)c1ccc(F)c(F)c1Nc1ccc(I)cc1F
[1]
  % of control: 100%
[2]
  % of control: 84%

## Nc1cnc(N2CCc3cc(S(=O)(=O)Nc4c(F)cc(Cl)cc4F)cc(N4CCCC4=O)c32)nc1 [TP-020n]
[3]
  % of control: 100%

## CC[C@@H]1[C@H](F)C(=O)N[C@@H]1COc1nccc2cc(C(N)=O)c(OC)cc12 [ZIMLOVISERTIB]
[4]
  % of inhibition: -21%
[5]
  % of inhibition: 7.8%
[6]
  % of inhibition: 9.9%

## COCC(=O)NC/C=C/c1ccc2ncnc(Nc3ccc(Oc4ccc(C)nc4)c(C)c3)c2c1 [CP-724714]
[7]
  % of control: 100%

## CCC(=O)N1CCN(c2ccc(-n3c(=O)ccc4cnc5ccc(-c6cnc7ccccc7c6)cc5c43)cc2C(F)(F)F)CC1
[8]
  % of control: 27%

## CN(C)C/C=C/C(=O)Nc1ccc(C(=O)N2CCCC(Nc3ncc(Cl)c(-c4c[nH]c5ccccc45)n3)C2)cc1 (stereo unspecified)
[9]
  % of control: 95%

## C=CC(=O)Nc1cc(-n2c(=O)ccc3cnc4ccc(-c5ccc(NS(C)(=O)=O)cc5)cc4c32)ccc1C
[10]; at 1 µM
  % of control: 100%
[10]; at 10 µM
  % of control: 84%

## Cc1cc([C@@H](C)Nc2ccccc2C(=O)O)c2nc(N3CCOCC3)cc(=O)n2c1 [AZD-6482]
[11]
  % of control: 83%

## N#Cc1cccc(-c2c[nH]c3ncnc(N4CCOCC4)c23)c1
[12]
  % of inhibition: 3%

## CN(C)CCOc1ccc(-c2nc(-c3ccncc3)c(-c3ccc4c(c3)CC/C4=N\O)[nH]2)cc1
[13]
  % of control: 93%
[14]
  % of control: 94%

## Cc1cc(F)c(C(=O)Nc2cccc(-c3nncn3C(C)C)n2)cc1-n1cnc(C2CC2)c1
[15]
  % of control: 92%

## CNC(=O)Nc1ccc(-c2nc(N3CC4CCC(C3)O4)c3cnn(C4CCC5(CC4)OCCO5)c3n2)cc1
[16]
  % of control: 39%
[17]
  % of control: 100%
[18]
  % of control: 77%

## COc1cc(C(=O)N2CC[C@@H](O)[C@@H](N)C2)cc2nc(-c3cc4ccccc4n3CC3CC3)n(C)c12
[19]
  pXC50: < 4.4 M
